Data as given in patent EP4786487A1, “PEPTIDE” (Peptidream Inc, priority 2023, dated 2025).
Like-named read-outs stand apart in the source and are kept apart here. Starred links: 1 amine or outer side, 2 acyl side, 3 side chain; linkers in the order of their positions; H or OH if unused. Positions of bridges follow the written chain, without caps; N, C: chain ends. Non-standard residues stand in square brackets, D forms with d. Residues, ends and D or L forms follow the SMILES beside them. *: point of attachment. X4 = CN(C)C(=O)Cn1cc(-c2ccc(C[C@H](N[*:1])C(=O)[*:2])cc2)cn1; Phe(4-(2-MeO-Ph)) = COc1ccccc1-c1ccc(C[C@H](N)C(=O)O)cc1; Phe(3-OCH2COOH) = N[C@@H](Cc1cccc(OCC(=O)O)c1)C(=O)O; Trp(1-Ph) = N[C@@H](Cc1cn(-c2ccccc2)c2ccccc12)C(=O)O; NMePhe(3-Ph) = CN[C@@H](Cc1cccc(-c2ccccc2)c1)C(=O)O; X11 = O=C([C@H](Cc1ccc(-c2ccccc2Cl)cc1)N[*:1])[*:2]; Trp(6-OH) = N[C@@H](Cc1c[nH]c2cc(O)ccc12)C(=O)O; Phe(4-COOH) = N[C@@H](Cc1ccc(C(=O)O)cc1)C(=O)O; Piperazinyl(4-CH2COOH) = O=C(O)CN1CCN(*)CC1; Piperidinyl(4-CH2COOH) = O=C(O)CC1CCN(*)CC1; Gly(decyl) = CCCCCCCCCC[C@H](N)C(=O)O; Gly(N(CH2)3COOH) = O=C(O)CCCNCC(=O)O; X1 = CCCCCCC[C@H](N[*:1])C(=O)[*:2]; NMeF = CN[C@@H](Cc1ccccc1)C(=O)O; NMeE = CN[C@@H](CCC(=O)O)C(=O)O; Cha = N[C@@H](CC1CCCCC1)C(=O)O; X12 = O=C(O)CCC1CCN(*)CC1; NMeA = CN[C@@H](C)C(=O)O; Sar = CNCC(=O)O

Experiments:
[1] = molecular target: T1, Myostatin (Homo sapiens, UniProt O14793); test: HepG2 reporter gene assay, Evaluation Procedure (2): 2-concentrations assay, myostatin inhibition; format: cell-based
T1 construct: active myostatin (also called mature myostatin) is a homodimer consisting of two C-terminal growth factor domains; purchased R&D systems 788-G8/CF
T1 sequence (O14793 267-375): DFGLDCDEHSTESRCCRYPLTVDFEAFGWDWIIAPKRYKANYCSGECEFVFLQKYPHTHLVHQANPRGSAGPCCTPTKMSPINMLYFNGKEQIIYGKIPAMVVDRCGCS
Summary of the method: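 Myostatin inhibition was measured in a luciferase reporter assay using HepG2 cells transfected with a pGL3 vector containing 12 CAGA repeats upstream of luciferase. After 20 to 24 hours with 10 ng/mL myostatin, cells received One-Glo:PBS (1:1) at 100 µL/well, were shaken for 5 min, and 20 µL/well was moved to 384-well plates and read on an Envision 2104.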

[2] = molecular target: T2, GDF-11 (Homo sapiens, UniProt O95390); test: HepG2 reporter gene assay, Evaluation Procedure (2): 2-concentrations assay, GDF-11 inhibition; format: cell-based
T2 construct: purchased R&D systems 1958-GD-G8/CF
T2 sequence (O95390 299-407): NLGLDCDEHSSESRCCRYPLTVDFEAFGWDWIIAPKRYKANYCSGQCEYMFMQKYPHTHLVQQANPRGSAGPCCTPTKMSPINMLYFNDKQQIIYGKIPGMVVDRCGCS
Summary of the method: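 HepG2 cells carrying the transfected pGL3(CAGA)12-luc reporter, a pGL3 vector with luciferase placed downstream of 12 CAGA repeats, were stimulated with GDF-11 at a final 10 ng/mL together with test peptide. Blank wells received no GDF-11 and no peptide. Plates were incubated 20 to 24 hours at 37°C with 5% CO2. Luminescence from One-Glo substrate was read to calculate percent inhibition.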

[3] = Table 7-3/7-4, myostatin 10 ng/mL, peptide at the higher of the 2 concentrations, HepG2, read-out: inhibition rate (myostatin inhibition assay)
[4] = Table 7-3/7-4, myostatin 10 ng/mL, peptide at the lower of the 2 concentrations, HepG2, read-out: inhibition rate (myostatin inhibition assay)
[5] = HepG2, first GDF-11 column of Table 7-3/7-4, GDF-11 10 ng/mL, peptide at the lower of the 2 concentrations, read-out: inhibition rate (GDF-11 inhibition assay)
[6] = HepG2, second GDF-11 column of Table 7-3/7-4, GDF-11 10 ng/mL, peptide at the higher of the 2 concentrations, read-out: inhibition rate (GDF-11 inhibition assay)
[7] = HepG2, read-out: inhibition rate (myostatin inhibition assay)
[8] = HepG2, read-out: inhibition rate (GDF-11 inhibition assay), Table 7-3/7-4, GDF-11 10 ng/mL, peptide at the higher of the 2 concentrations
[9] = HepG2, read-out: inhibition rate (GDF-11 inhibition assay), Table 7-3/7-4, GDF-11 10 ng/mL, peptide at the lower of the 2 concentrations

Row | SMILES | inhibition at 0.1 µM [1, 3] [%] | inhibition at 0.03 µM [1, 4] [%] | inhibition [2, 5] [%] | inhibition [2, 6] [%] | inhibition at 0.03 µM [1, 7] [%] | inhibition at 0.1 µM [1, 7] [%] | inhibition [2, 8] [%] | inhibition [2, 9] [%]
1 | CCCCCCC[C@@H]1NC(=O)[C@H](Cc2ccccc2)N(C)C(=O)[C@H](CCCNC(=N)N)NC(=O)[C@H](Cc2ccc(C(=O)O)cc2)NC(=O)[C@H](Cc2cccc(OCC(=O)O)c2)NC(=O)CN(C)C(=O)[C@H]([C@@H](C)CC)NC(=O)[C@H](Cc2ccccc2)N(C)C(=O)[C@H](Cc2ccc(O)cc2)NC(=O)[C@H](Cc2c[nH]c3ccccc23)NC(=O)[C@H](C)NC(=O)[C@H](C)NC(=O)CSC[C@H](C(=O)N2CCC(CC(=O)O)CC2)NC(=O)[C@H](Cc2ccccc2)N(C)C(=O)[C@H](C)N(C)C1=O [Myostatin_99_v313] ({CH2CO}-AAWY[NMeF]I[Sar][Phe(3-OCH2COOH)][Phe(4-COOH)]R[NMeF][X1][NMeA][NMeF][dC]-{Piperidinyl(4-CH2COOH)}; thioether N-15) | 100 | 100 | 12 | 40 | – | – | – | –
2 | CCCCCCC[C@@H]1NC(=O)[C@H](Cc2ccccc2)N(C)C(=O)[C@H](CCCNC(=N)N)NC(=O)[C@H](Cc2ccc(C(=O)O)cc2)NC(=O)[C@H](Cc2cccc(OCC(=O)O)c2)NC(=O)CN(C)C(=O)[C@H]([C@@H](C)CC)NC(=O)[C@H](Cc2ccccc2)N(C)C(=O)[C@H](Cc2ccc(O)cc2)NC(=O)[C@H](Cc2c[nH]c3ccccc23)NC(=O)[C@H](C)NC(=O)[C@H](C)NC(=O)CSC[C@H](C(=O)N2CCC(CCC(=O)O)CC2)NC(=O)[C@H](Cc2ccccc2)N(C)C(=O)[C@H](C)N(C)C1=O [Myostatin_99_v314] ({CH2CO}-AAWY[NMeF]I[Sar][Phe(3-OCH2COOH)][Phe(4-COOH)]R[NMeF][X1][NMeA][NMeF][dC]-X12; thioether N-15) | 100 | 100 | 2 | 51 | – | – | – | –
3 | CCCCCCC[C@@H]1NC(=O)[C@H](Cc2ccccc2)N(C)C(=O)[C@H](CCCNC(=N)N)NC(=O)[C@H](Cc2ccc(C(=O)O)cc2)NC(=O)[C@H](Cc2cccc(OCC(=O)O)c2)NC(=O)[C@H](C)N(C)C(=O)[C@H]([C@@H](C)CC)NC(=O)[C@H](Cc2ccccc2)N(C)C(=O)[C@H](Cc2ccc(O)cc2)NC(=O)[C@H](Cc2c[nH]c3cc(O)ccc23)NC(=O)[C@H](C)NC(=O)CN(CCCC(=O)O)C(=O)CSC[C@H](C(=O)O)NC(=O)[C@H](Cc2ccccc2)N(C)C(=O)[C@H](C)N(C)C1=O [Myostatin_99_v318] ({CH2CO}-[Gly(N(CH2)3COOH)]A[Trp(6-OH)]Y[NMeF]I[NMeA][Phe(3-OCH2COOH)][Phe(4-COOH)]R[NMeF][X1][NMeA][NMeF][dC]-OH; thioether N-15) | 100 | 100 | 0 | 19 | – | – | – | –
4 | CCCCCCC[C@@H]1NC(=O)[C@H](Cc2ccccc2)N(C)C(=O)[C@H](CCCNC(=N)N)NC(=O)[C@H](Cc2ccc(C(=O)O)cc2)NC(=O)[C@H](Cc2ccc(-c3ccccc3Cl)cc2)NC(=O)[C@H](C)N(C)C(=O)[C@H]([C@@H](C)CC)NC(=O)[C@H](Cc2ccccc2)N(C)C(=O)[C@H](Cc2ccc(O)cc2)NC(=O)[C@H](Cc2ccc(-c3cnn(CC(=O)N(C)C)c3)cc2)NC(=O)[C@H](C)NC(=O)CN(CCCC(=O)O)C(=O)CSC[C@H](C(=O)O)NC(=O)[C@H](Cc2ccccc2)N(C)C(=O)[C@H](CCC(=O)O)N(C)C1=O [Myostatin_99_v321] ({CH2CO}-[Gly(N(CH2)3COOH)]A[X4]Y[NMeF]I[NMeA][X11][Phe(4-COOH)]R[NMeF][X1][NMeE][NMeF][dC]-OH; thioether N-15) | – | – | – | – | 58 | 91 | 0 | 0
5 | CCCCCCC[C@@H]1NC(=O)[C@H](Cc2ccccc2)N(C)C(=O)[C@H](CCCNC(=N)N)NC(=O)[C@H](Cc2ccc(C(=O)O)cc2)NC(=O)[C@H](Cc2ccc(-c3ccccc3OC)cc2)NC(=O)[C@H](C)N(C)C(=O)[C@H]([C@@H](C)CC)NC(=O)[C@H](Cc2ccccc2)N(C)C(=O)[C@H](Cc2ccc(O)cc2)NC(=O)[C@H](Cc2c[nH]c3cc(O)ccc23)NC(=O)[C@H](C)NC(=O)CN(CCCC(=O)O)C(=O)CSC[C@H](C(=O)O)NC(=O)[C@H](Cc2ccccc2)N(C)C(=O)[C@H](CCC(=O)O)N(C)C1=O [Myostatin_99_v323] ({CH2CO}-[Gly(N(CH2)3COOH)]A[Trp(6-OH)]Y[NMeF]I[NMeA][Phe(4-(2-MeO-Ph))][Phe(4-COOH)]R[NMeF][X1][NMeE][NMeF][dC]-OH; thioether N-15) | – | – | – | – | 97 | 99 | 0 | 0
6 | CCCCCCC[C@@H]1NC(=O)[C@H](Cc2ccccc2)N(C)C(=O)[C@H](CCCNC(=N)N)NC(=O)[C@H](Cc2ccc(C(=O)O)cc2)NC(=O)[C@H](Cc2ccc(-c3ccccc3Cl)cc2)NC(=O)CN(C)C(=O)[C@H]([C@@H](C)CC)NC(=O)[C@H](Cc2ccccc2)N(C)C(=O)[C@H](Cc2ccc(O)cc2)NC(=O)[C@H](Cc2c[nH]c3cc(O)ccc23)NC(=O)[C@H](C)NC(=O)[C@H](C)NC(=O)CSC[C@H](C(=O)N2CCN(CC(=O)O)CC2)NC(=O)[C@H](Cc2ccccc2)N(C)C(=O)[C@H](CCC(=O)O)N(C)C1=O [Myostatin_99_v325] ({CH2CO}-AA[Trp(6-OH)]Y[NMeF]I[Sar][X11][Phe(4-COOH)]R[NMeF][X1][NMeE][NMeF][dC]-{Piperazinyl(4-CH2COOH)}; thioether N-15) | 100 | 100 | 49 | 86 | – | – | – | –
7 | CCCCCCC[C@@H]1NC(=O)[C@H](Cc2ccccc2)N(C)C(=O)[C@H](CCCNC(=N)N)NC(=O)[C@H](Cc2ccc(C(=O)O)cc2)NC(=O)[C@H](Cc2cccc(OCC(=O)O)c2)NC(=O)[C@H](C)N(C)C(=O)[C@H]([C@@H](C)CC)NC(=O)[C@H](Cc2ccccc2)N(C)C(=O)[C@H](Cc2ccc(O)cc2)NC(=O)[C@H](Cc2cn(-c3ccccc3)c3ccccc23)NC(=O)[C@H](C)NC(=O)[C@H](C)NC(=O)CSC[C@H](C(=O)N2CCN(CC(=O)O)CC2)NC(=O)[C@H](Cc2cccc(-c3ccccc3)c2)N(C)C(=O)[C@H](CCC(=O)O)N(C)C1=O [Myostatin_99_v330] ({CH2CO}-AA[Trp(1-Ph)]Y[NMeF]I[NMeA][Phe(3-OCH2COOH)][Phe(4-COOH)]R[NMeF][X1][NMeE][NMePhe(3-Ph)][dC]-{Piperazinyl(4-CH2COOH)}; thioether N-15) | 100 | 100 | 0 | 0 | – | – | – | –
8 | CCCCCCCCCC[C@@H]1NC(=O)[C@H](Cc2ccccc2)N(C)C(=O)[C@H](CCCNC(=N)N)NC(=O)[C@H](Cc2ccc(C(=O)O)cc2)NC(=O)[C@H](Cc2cccc(OCC(=O)O)c2)NC(=O)[C@H]2CCCN2C(=O)[C@H]([C@@H](C)CC)NC(=O)[C@H](Cc2ccccc2)N(C)C(=O)[C@H](Cc2ccc(O)cc2)NC(=O)[C@H](Cc2cn(-c3ccccc3)c3ccccc23)NC(=O)[C@H](C)NC(=O)[C@H](C)NC(=O)CSC[C@H](C(=O)N2CCN(CC(=O)O)CC2)NC(=O)[C@H](Cc2cccc(-c3ccccc3)c2)N(C)C(=O)[C@H](CCC(=O)O)N(C)C1=O [Myostatin_99_v331] ({CH2CO}-AA[Trp(1-Ph)]Y[NMeF]I[dP][Phe(3-OCH2COOH)][Phe(4-COOH)]R[NMeF][Gly(decyl)][NMeE][NMePhe(3-Ph)][dC]-{Piperazinyl(4-CH2COOH)}; thioether N-15) | 100 | 100 | 0 | 0 | – | – | – | –
9 | CCCCCCCCCC[C@@H]1NC(=O)[C@H](CC2CCCCC2)NC(=O)[C@H](CCCNC(=N)N)NC(=O)[C@H](Cc2ccc(C(=O)O)cc2)NC(=O)[C@H](Cc2cccc(OCC(=O)O)c2)NC(=O)[C@H](C)N(C)C(=O)[C@H]([C@@H](C)CC)NC(=O)[C@H](Cc2ccccc2)N(C)C(=O)[C@H](Cc2ccc(O)cc2)NC(=O)[C@H](Cc2cn(-c3ccccc3)c3ccccc23)NC(=O)[C@H](C)NC(=O)[C@H](C)NC(=O)CSC[C@H](C(=O)N2CCN(CC(=O)O)CC2)NC(=O)[C@H](Cc2cccc(-c3ccccc3)c2)N(C)C(=O)[C@H](CCC(=O)O)N(C)C1=O [Myostatin_99_v332] ({CH2CO}-AA[Trp(1-Ph)]Y[NMeF]I[NMeA][Phe(3-OCH2COOH)][Phe(4-COOH)]R[Cha][Gly(decyl)][NMeE][NMePhe(3-Ph)][dC]-{Piperazinyl(4-CH2COOH)}; thioether N-15) | 100 | 100 | 0 | 0 | – | – | – | –
